Experimental data from patent publication US7169787B2, “7-azaindoles, use thereof as phosphodiesterase 4 inhibitors and method for producing the same” (Elbion AG, priority 2000, dated 2007).
Structures can show the parent of a compound that is named as a salt.

Assays:
PDE 4 = assay: Inhibition of phosphodiesterase 4 (enzyme preparation from human PMNL, [3H]-cAMP); format: biochemical; conditions: PDE 4 from human PMNL cytosol, 0.5 μM [3H]-cAMP
Procedure: The PDE 4 activity is determined in enzyme preparations from human polymorphonuclear […] (PMNL) and the PDE 2, 3 and 5 activity is determined with PDE from human thrombocytes. Human blood was anti-coagulated with citrate. By centrifuging at 700×g for 20 minutes at room temperature, the thrombocyte-rich plasma in the supernatant is separated from the erythrocytes and leukocytes. The thrombocytes are lysed by ultrasound and used in the PDE 3 and PDE 5 assays. For the determination of the PDE 2 activity, the cytosolic thrombocyte fraction is purified on an anionic exchange column by means of NaCl gradients and the PDE 2 peak is obtained for the assay. The PMNLs for the PDE 4 determination are isolated by a subsequent dextran sedimentation, followed by a gradient centrifugation with Ficoll-Paque. After the cells have been washed twice, the erythrocytes, still contained, are lysed within 6 minutes at 4° C. by the addition of 10 mL of hypotonic buffer (155 mM of NH4Cl, 10 mM of NaHCO3, 0.1 mM of EDTA, pH=7.4). The PMNLs, which are still intact, are washed twice with PBS and lysed with ultrasound. The supernatant of a one-hour centrifugation at 4° C. at 48,000×g contains the cytosolic fraction of the PDE 4 and is used for the PDE 4 measurements.
The phosphodiesterase activity is determined using the method described by Thompson et al. with some modifications (Thompson, W. J. and M. M. Appleman, Assay of cyclic nucleotide phosphodiesterase and resolution of multiple molecular forms of the enzyme, Adv. Cycl. Nucl. Res. 1979, 10, 69–92).
The reaction mixtures contain 50 mM of tris hydrochloride (pH 7.4), 5 mM of magnesium chloride, the inhibitors in various concentrations, the corresponding enzyme preparation as well as the further components necessary for determining the individual isoenzymes (see below). The reaction is started by the addition of the substrate, 0.5 μM of [^3H]-cAMP or [^3H]-cGMP (approximately 6000 CPM per test). The final volume is […]. Test substances are mixed as stock solutions in DMSO. The DMSO concentration in the reaction mixture is 1% v/v. The PDE activity is not affected by this concentration of DMSO. After the reaction is started by the addition of substrate, samples are incubated for 30 minutes at 37° C. The reaction is stopped by heating the test tubes for 2 minutes at 110° C. The samples remain for a further 10 minutes in ice. The addition of 30 μL of 5′-nucleotidase (1 mg/mL, from a poisonous snake suspension from Crotalus adamanteus) is followed by a 10-minutes incubation at 37° C. The samples are stopped on ice, in each case 400 μL of a mixture of Dowex, water and ethanol (1+1+1) is added, mixed well and incubated once again for 15 minutes on ice. The reaction vessels are centrifuged for 20 minutes at 3000×g. Aliquots of the supernatant (200 μL) are transferred directly to scintillation vessels. After the addition of 3 mL of scintillator, the samples are measured in the beta counter.
[^3H]-cAMP is used as substrate for the determination of the PDE 4, 3 and 2 activity and [^3H]-cGMP is used as substrate for the determination of the PDE 5 activity. The enzyme activities, which are nonspecific in each case, are determined in the presence of 100 μM of Rolipram for the determination of PDE 4 and in the presence of 100 μM of IBMX for the determination of the PDE 3 and 5 and subtracted from the test values. The incubation formulations of the PDE 3 assays contained 10 μM of Rolipram, in order to inhibit possible contaminations by PDE 4. The PDE 2 is tested with an SPA assay of the Amersham Company. The assay is carried out in the presence of the activator of the PDE 2 (5 μM of cGMP).

[1] = tested on: release of TNFα from cells of nasal polyps; assay: Inhibition of the release of TNFα from cells of nasal polyps (anti-IgE stimulated, ELISA); format: cell-based; conditions: Homo sapiens; concentration 1.0 μmole/L; anti-IgE stimulated nasal polyp cells
Procedure: The experimental arrangement corresponds essentially to the method described by Campbell, A. M. and J. Bousquet (Anti-allergic activity of H1-blockers, Int. Arch. Allergy Immunol., 1993, 101, 308–310). Nasal polyps form the starting material (material from patients, who had been subjected to a surgical treatment).
The tissue is washed with RPMI 1640 and subsequently digested with protease (2.0 mg/mL), collagenase (1.5 mg/mL), hyaluronidase (0.75 mg/mL), and DNAse (0.05 mg/mL) for two hours at 37° C. (1 g of tissue and 4 mL of RPMI 1640 with enzymes). The cells obtained, a mixture of epithelial cells, monocytes, macrophages, lymphocytes, fibroblasts and granulocytes, are filtered and washed by being centrifuged repeatedly in culture solution and sensitized passively by the addition of human IgE and the cell suspension is brought to a concentration of 2 million cells/mL in RPMI 1640 (supplemented by antibiotics, 10% fetal calf serum, 2 mM of glutamine and 25 mM of Hepes). This suspension is distributed on six-well cell culture plates (1 ml/well). The cells are pre-incubated for 30 minutes with the test substances in different final concentrations and subsequently stimulated to release TNFα by the addition of anti-IgE (7.2 μg/mL). The maximum release into the culture medium takes place after about 18 hours. During this period, the cells are incubated at 37° C. and 5% carbon dioxide. The culture medium (supernatant) is recovered by centrifuging (five minutes at 4000 rpm) and kept at −70° C. until the cytokin is determined. The TNFα in the supernatant is determined with so-called sandwich ELISAs (basic material Pharmingen), with which cytokin concentrations ranging from 30 to 1000 pg/mL can be determined.
Cells, not stimulated with anti IgE, hardly produce any TNFα; on the other hand, stimulated cells secrete large amounts of TNFα, which can be reduced, for example, by PDE 4 inhibitors as a function of the dose. From the percentage inhibition (TNFα release by the cells, stimulated with anti IgE=100%) of the substances tested at different concentrations, the IC50 (concentration at 50% inhibition) is calculated.

[2] = tested on: actively sensitized Brown Norway Rats; assay: Inhibition of the late phase eosinophilia 48 hours after inhalative ovalbumin challenge; format: in vivo, rat; conditions: 2 h before allergen challenge, BAL 48 h after challenge
Procedure: The inhibition of pulmonary eosinophilia infiltration by the inventive substances is tested on male Brown Norway Rats (200–250 g), which had been actively sensitized against ovalbumin (OVA). The rats were sensitized by subcutaneous injections of a suspension of 10 μg OVA together with 20 mg of aluminum hydroxide as adjuvant in 0.5 mL of physiological salt solution per animal on days 1, 14 and 21. In addition, the animals at the same time received Bordetella pertussis vaccine dilution injected 0.25 mL i.p. per animal. On the 28th day of the experiment, the animals are placed individually in open 1 L Plexiglas boxes, which are connected to a head-nose exposure device. The animals are exposed to an aerosol of 1.0% ovalbumin suspension (allergen challenge). The ovalbumin aerosol is produced by a nebulizer (Bird Micronebulizer, Palm Springs Calif., USA), which is operated with compressed air (0.2 MPa). The exposure time is one hour, normal controls being nebulized also for one hour with an aerosol of 0.9% salt solution.
Forty-eight hours after the allergen challenge, there is a massive migration of eosinophilic granulocytes into the lungs of the animals. At this time, the animals are anesthetized with an excess of ethyl urethane (1.5 g/kg of body weight i.p.) and a bronchoalveolar lavage (BAL) with 3×4 mL of Hank's balance solution is carried out. The total cell count and the number of eosinophilic granulocytes of the pooled BAL liquid are subsequently determined with an automatic cell differentiation instrument (Bayer Diagnostics Technicon HIE). For each animal, the eosinophiles (EOS) in the BAL are calculated in millions/animal: EOS/μl×BAL recovery (mL)=EOS/animal.
For each test, 2 control groups were run (nebulization with physiological salt solution and nebulization with OVA solution).
The percentage inhibition of the eosinophilia of the experimental group, treated with substance, was calculated according to the following formula: {((OVAC−SC)−(OVAD−SC))/(OVAC−SC)}×100%=% inhibition (SC=vehicle-treated control group challenged with 0.9% salt solution; OVAC=vehicle-treated control group challenged with 1% ovalbumin suspension; OVAD=substance-treated experimental group challenged with 1% ovalbumin suspension)
The test substances are applied i.p. or orally as a suspension in 10% polyethylene glycol 300 and 0.5% 5-hydroxyethylcellulose for two hours before the allergen challenge. The control groups are treated with the vehicle in accordance with the application form of the test substance.

Row | SMILES | melting point | IC50 (PDE 4) | inhibition at 1 µM [1] | Inhibition of Eosinophilia ([2]; 10 mg/kg i.p.) | Inhibition of Eosinophilia ([2]; 10 mg/kg p.o.)
1 | Cc1noc(C)c1Cn1cc(C(=O)C(=O)Nc2c(Cl)cncc2Cl)c2cccnc21 [Example 32] | 196 to 198 °C | 113 nM | – | – | –
2 | CCCCCCn1cc(C(=O)C(=O)Nc2c(Cl)cncc2Cl)c2cccnc21 [Example 26] | 165 to 167 °C | 21 nM | – | – | –
3 | COc1ccc(Cn2cc(C(=O)C(=O)Nc3c(Cl)cncc3Cl)c3cccnc32)cc1 [Example 17] | 165 to 167 °C | 8 nM | 91% | 75% | 32%
4 | CC(C)Cn1cc(C(=O)Nc2c(Cl)cncc2Cl)c2cccnc21 [Example 2] | – | 1400 nM | – | – | –
5 | O=C(Nc1c(Cl)cncc1Cl)C(=O)c1cn(CC2CC2)c2ncccc12 [Example 25] | 215 to 218 °C | 4 nM | – | – | –
6 | O=C(Nc1c(Cl)cncc1Cl)C(=O)c1cn(Cc2cccc(O)c2)c2ncccc12 [Example 24] | 241 to 244 °C | 3 nM | – | – | –
7 | Cc1[nH]c(=O)[nH]c(=O)c1NC(=O)C(=O)c1cn(Cc2ccc(F)cc2)c2ncccc12 [Example 37] | 297 to 300 °C (dec.) | 987 nM | – | – | –
8 | C=C(C)Cn1cc(C(=O)C(=O)Nc2c(Cl)cncc2Cl)c2cccnc21 [Example 28] | 114 to 116 °C | 3 nM | – | – | –
9 | O=C(NCc1ccncc1)c1cn(CC2CC2)c2ncccc12 [Example 1, N-(4-Pyridylmethyl)-1-cyclopropylmethyl-7-azaindole-3-carboxylic Acid Amide] | – | 710 nM | – | – | –
10 | O=C(Nc1c(Cl)cncc1Cl)C(=O)c1cn(Cc2ccc(O)cc2)c2ncccc12 [Example 23] | 140 to 142 °C | 1 nM | – | – | –
11 | O=C(Nc1ccncc1)C(=O)c1cn(Cc2ccc(Cl)cc2)c2ncccc12 (as salt: HCl) [Example 15] | 280 to 283 °C (dec.) | – | – | – | –
12 | O=C(Nc1c(Cl)cncc1Cl)C(=O)c1cn(Cc2ccc(Cl)cc2)c2ncccc12 [Example 16] | 205 to 207 °C | 2 nM | 90% | 100% | 70%
13 | O=C(Nc1ccncc1)C(=O)c1cn(Cc2ccc(F)cc2)c2ncccc12 (as salt: HCl) [Example 13] | 275 to 278 °C (dec.) | – | – | – | –
14 | O=C(Nc1c(Cl)cccc1Cl)C(=O)c1cn(Cc2ccc(Cl)cc2)c2ncccc12 [Example 18] | 166 to 168 °C | 31 nM | – | – | –
15 | O=C(Nc1ccncc1)C(=O)c1cn(Cc2ccc(F)cc2)c2ncccc12 [Example 13] | – | 58 nM | – | – | –
16 | COc1cccc(Cn2cc(C(=O)C(=O)Nc3c(Cl)cncc3Cl)c3cccnc32)c1 [Example 12, N-(3,5-Dichloropyridine-4-yl)-[1-(3-methoxybenzyl)-7-azaindole-3-yl]-glyoxylic Acid Amide] | 165 to 167 °C | 5 nM | – | – | –
17 | O=C(Nc1ccncc1)C(=O)c1cn(Cc2ccc(Cl)cc2)c2ncccc12 [Example 15] | – | 31 nM | – | – | –
